From PubChem BioAssay (NCI)
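Exposure lasted 48 hours, with cells grown in 96-well plates and compounds tested at five concentrations. TGI: concentration producing complete growth inhibition.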

Tests used:
Assay in all cases: DTP human tumour cell line panel, 48 h
RXF 393 renal = system: RXF 393 renal
NCI-H23 lung = system: NCI-H23 lung
LOX IMVI melanoma = system: LOX IMVI melanoma
UACC-257 melanoma = system: UACC-257 melanoma
SF-295 CNS = system: SF-295 CNS
MDA-MB-231 breast = system: MDA-MB-231 breast
SK-MEL-28 melanoma = system: SK-MEL-28 melanoma
PC-3 prostate = system: PC-3 prostate
K-562 leukemia = system: K-562 leukemia
A498 renal = system: A498 renal

| Compound | TGI (RXF 393 renal) [µM] | TGI (NCI-H23 lung) [µM] | TGI (LOX IMVI melanoma) [µM] | TGI (UACC-257 melanoma) [µM] | TGI (SF-295 CNS) [µM] | TGI (MDA-MB-231 breast) [µM] | TGI (SK-MEL-28 melanoma) [µM] | TGI (PC-3 prostate) [µM] | TGI (K-562 leukemia) [µM] | TGI (A498 renal) [µM] |
| --- | --- | --- | --- | --- | --- | --- | --- | --- | --- | --- |
| NC1=NCC(CN2CCCC2)O1 (configuration not stated) | > 100 | > 100 | > 100 | > 100 | > 100 | > 100 | > 100 | > 100 | > 100 | > 100 |
| Cc1ccccc1OC(C)C(=O)NN1C(=O)CC(=O)N(c2ccccc2)C1=S (configuration not stated) | > 100 | > 100 | > 100 | > 100 | > 100 | > 100 | > 100 | > 100 | > 100 | > 100 |
| CO[C@H]1C[C@H](O[C@H]2CC[C@]3(C=O)[C@H]4CC[C@]5(C)[C@@H](C6=CC(=O)OC6)CC[C@]5(O)[C@@H]4CC[C@]3(O)C2)O[C@H](C)[C@H]1O | 0.189 | 0.787 | 8.31 | 1.43 | 0.671 | 5.34 | 5.37 | 1.04 | 1.35 | 1.34 |
| NCCC1CN(C(=O)OCc2ccccc2)c2ccccc21 (configuration not stated) | 32.3 | 41.8 | 17.1 | 37.8 | 40.3 | 46.6 | 36 | > 36.2 | 26.9 | > 52.2 |
| Cn1c2ccccc2n2c3ncccc3c(=S)c(C#N)c12 | > 100 | > 100 | > 100 | – | > 100 | > 100 | > 100 | > 100 | > 100 | > 100 |
| CCOC(=O)c1cnccc1CC1(C#N)c2ccccc2C=CN1C(=O)c1ccccc1 (configuration not stated) | > 100 | > 100 | 72.9 | > 100 | > 100 | > 100 | > 100 | > 100 | 49.6 | > 100 |
| O=C1CC(n2cccc2)c2c(Br)sc(Br)c21 (configuration not stated) | 43.4 | 27.9 | 21.7 | 30.9 | 55.8 | 30.9 | 41.2 | 33.9 | 64.8 | 56.5 |
| Cc1nc2ccc(Cl)cc2c2c1CCN2c1ccccc1 | 18.6 | 43.6 | 22.3 | 29.1 | 20.1 | 13.7 | 28.5 | 29.5 | 21.8 | 34.3 |
| CCCNc1ncnc2[nH]ncc12 | > 100 | > 100 | > 100 | > 100 | > 100 | > 100 | > 100 | > 100 | > 100 | > 100 |
| O=c1cc(NCc2ccncc2)[nH]c(=O)[nH]1 | > 100 | > 100 | > 100 | > 100 | > 100 | > 100 | > 100 | > 100 | > 100 | > 100 |
| CCOC(=O)C1CCCCN1CCc1c[nH]c2ccccc12 (configuration not stated) | > 100 | > 100 | > 100 | > 100 | > 100 | > 100 | > 100 | > 100 | > 100 | > 100 |
| C(/Cc1ccc2c(c1)OCO2)=N\NC1=NCCCN1 | > 100 | > 100 | > 100 | > 100 | > 100 | > 100 | > 100 | > 100 | > 100 | 72.8 |
| Cc1ccc(-c2n[nH]c(=O)n2/N=C\c2ccccc2)cc1 | > 81.5 | > 100 | > 100 | > 100 | 69 | > 100 | > 100 | > 100 | > 100 | > 100 |
| N#Cc1nc(C#N)n(C(=O)c2ccccc2)c1NC(=O)c1ccccc1 | > 100 | > 100 | > 100 | > 100 | > 100 | > 100 | > 100 | > 100 | > 100 | > 100 |
| C/C(Nc1ccc(Cl)cc1Cl)=C1/CCOC1=O | 39.8 | > 100 | > 100 | > 100 | 54 | 46.3 | > 100 | > 100 | > 100 | > 100 |
| O=[N+]([O-])c1ccc(C(Nc2ccccc2)c2ccc3cccnc3c2O)cc1 (configuration not stated) | 24.6 | > 100 | 61 | 42.8 | > 100 | 59.9 | > 100 | > 87.2 | > 57.4 | > 100 |

| Compound | TGI (RXF 393 renal) [µM] | TGI (NCI-H23 lung) [µM] | TGI (LOX IMVI melanoma) [µM] | TGI (UACC-257 melanoma) [µM] | TGI (SF-295 CNS) [µM] | TGI (MDA-MB-231 breast) [µM] | TGI (SK-MEL-28 melanoma) [µM] | TGI (PC-3 prostate) [µM] | TGI (K-562 leukemia) [µM] | TGI (A498 renal) [µM] |
| --- | --- | --- | --- | --- | --- | --- | --- | --- | --- | --- |
| Cc1ccc(/C(O)=C/c2nc3ccc([N+](=O)[O-])cc3nc2/C=C(\O)c2ccc(C)cc2)cc1 | > 77.5 | > 100 | > 100 | > 100 | > 100 | > 100 | > 100 | > 100 | > 100 | > 100 |
| CCOP(=O)(OCC)/C(C#N)=C/c1cccn1Cc1ccccc1 | > 100 | > 100 | 53 | > 100 | 97.6 | 57.5 | 39.5 | > 100 | > 100 | > 100 |
| CC(C)OC1OC(CO)C(O)CC1n1cc(F)c(=O)[nH]c1=O (configuration not stated) | > 100 | > 100 | > 100 | > 100 | > 100 | > 100 | > 100 | > 100 | 86.4 | > 100 |
| O=C(/C=C/c1cccs1)c1ccccc1Cl | 23.7 | 25.8 | 32.9 | 34.2 | 36.2 | > 54.4 | 38.8 | 34.5 | > 100 | 24 |
| Nc1nc(Cl)cc(NCC2(O)CCCC2)n1 | > 100 | > 100 | > 100 | > 100 | > 100 | > 100 | > 100 | > 100 | > 100 | > 100 |
| CC(C)(C)C1CC[C@H](O)[C@H]([C@H](O)CC2CC(=O)N(c3ccccc3)C(=O)C2)C1 (some centres not stated) | > 100 | > 100 | > 100 | > 100 | > 100 | > 100 | > 100 | > 100 | > 100 | > 100 |
| CC(C)(C)OC(=O)n1cc(C2CN(O)C(=O)C23CCC(=O)N3Cc2ccccc2)c2ccccc21 (configuration not stated) | > 100 | > 100 | 55.3 | > 100 | > 100 | > 100 | – | > 100 | > 100 | 74.8 |
| NCCOCC(N)C(=O)O (configuration not stated) | > 100 | > 100 | > 100 | > 100 | > 100 | > 100 | > 100 | > 100 | > 100 | > 100 |
| CN1C(=O)C(O)CC1c1cccc(C(F)(F)F)c1 (configuration not stated) | > 100 | > 100 | > 100 | > 100 | > 100 | > 100 | > 100 | > 100 | > 100 | > 100 |
| O=[N+]([O-])c1cccnc1-n1cnc2ccccc21 | > 100 | – | > 100 | > 100 | > 100 | > 100 | > 100 | > 100 | > 100 | > 100 |
| O=C(c1ccco1)N(C(=S)OC12CC3CC(CC(C3)C1)C2)c1ccccc1 | 44.8 | 87.3 | 86.2 | > 100 | > 100 | > 100 | > 100 | 60.3 | > 100 | 84.6 |
| Cc1cc2c(c(=O)n1C)SCC2 | > 100 | > 100 | > 100 | > 100 | > 100 | > 100 | > 100 | > 100 | > 100 | > 100 |
| c1ccc(-c2nnn(CCN3CCCCC3)n2)cc1 | > 100 | > 100 | > 100 | > 100 | > 100 | > 100 | > 100 | > 100 | > 100 | > 100 |
| CCOC(=O)c1cn(C)c(=S)n2c1nc1ccccc12 | > 100 | > 100 | > 100 | > 100 | > 100 | > 100 | > 100 | > 100 | > 100 | > 100 |
| COc1ccc(-c2cc(C(O)C3CCCCN3)c3ccccc3n2)cc1 (configuration not stated) | 11.3 | 31.6 | 16 | 4.48 | 28.4 | 9.83 | 5.49 | 16.9 | 8.24 | 25.4 |
| Cc1ccc(S(=O)(=O)N(CC(O)COc2ccccc2)c2ccc(F)cc2F)cc1 (configuration not stated) | 27 | 27.7 | 27.3 | 33.3 | 34.4 | 39 | 29.7 | 25.3 | > 100 | 28.7 |
